Reference: ChEMBL document CHEMBL2073959, “The human bile salt export pump: characterization of substrate specificity and identification of inhibitors” (Gastroenterology, 2002)

Legend:
[1] = biological target: T1, Bile salt export pump (Homo sapiens, UniProt O95342); experiment: TP_TRANSPORTER: competitive inhibition of Taurocholate uptake in membrane vesicles prepared from High Five cells infected with the ABCB11 baculovirus; assay type: functional, cell membranes, BTI-TN-5B1-4, Membrane vesicle
T1 sequence (O95342 whole entry): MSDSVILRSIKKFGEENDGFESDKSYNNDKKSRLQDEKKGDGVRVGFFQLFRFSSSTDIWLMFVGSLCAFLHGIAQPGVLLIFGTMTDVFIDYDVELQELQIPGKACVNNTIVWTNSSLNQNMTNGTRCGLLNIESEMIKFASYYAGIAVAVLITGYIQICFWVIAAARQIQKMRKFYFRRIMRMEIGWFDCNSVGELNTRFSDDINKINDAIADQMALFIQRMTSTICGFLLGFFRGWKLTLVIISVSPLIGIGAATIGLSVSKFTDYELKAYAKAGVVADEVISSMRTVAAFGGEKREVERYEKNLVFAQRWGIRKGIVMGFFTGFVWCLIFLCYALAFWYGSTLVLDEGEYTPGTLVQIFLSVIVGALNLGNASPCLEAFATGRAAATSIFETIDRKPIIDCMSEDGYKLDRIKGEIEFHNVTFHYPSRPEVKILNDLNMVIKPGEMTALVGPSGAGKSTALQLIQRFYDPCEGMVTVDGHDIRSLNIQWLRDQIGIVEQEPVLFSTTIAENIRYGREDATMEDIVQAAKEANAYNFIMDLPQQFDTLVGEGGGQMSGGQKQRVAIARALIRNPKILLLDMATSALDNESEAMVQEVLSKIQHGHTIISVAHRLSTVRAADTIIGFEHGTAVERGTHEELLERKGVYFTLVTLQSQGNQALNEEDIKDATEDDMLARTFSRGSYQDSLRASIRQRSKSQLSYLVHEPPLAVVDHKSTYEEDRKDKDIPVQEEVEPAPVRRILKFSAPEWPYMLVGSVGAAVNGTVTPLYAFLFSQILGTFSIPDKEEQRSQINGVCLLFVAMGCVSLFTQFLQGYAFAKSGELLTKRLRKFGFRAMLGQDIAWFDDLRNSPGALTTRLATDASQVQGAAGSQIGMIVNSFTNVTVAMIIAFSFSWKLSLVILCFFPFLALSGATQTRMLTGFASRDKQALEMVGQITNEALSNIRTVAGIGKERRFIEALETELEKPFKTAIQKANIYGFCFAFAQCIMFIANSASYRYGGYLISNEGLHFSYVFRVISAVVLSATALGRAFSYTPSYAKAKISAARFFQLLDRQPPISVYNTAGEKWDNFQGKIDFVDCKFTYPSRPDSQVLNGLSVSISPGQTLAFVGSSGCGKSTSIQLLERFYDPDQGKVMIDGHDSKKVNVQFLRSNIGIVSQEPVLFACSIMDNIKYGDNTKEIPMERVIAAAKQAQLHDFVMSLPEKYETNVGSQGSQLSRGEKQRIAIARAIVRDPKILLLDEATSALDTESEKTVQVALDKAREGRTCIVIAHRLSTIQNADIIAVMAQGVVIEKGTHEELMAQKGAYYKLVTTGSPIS

[2] = biological target: T1, Bile salt export pump; experiment: TP_TRANSPORTER: inhibition of Taurocholate uptake(Rifampicin SV 30uM, 50 % of control) in membrane vesicles prepared from High Five cells infected with the ABCB11 baculovirus; assay type: functional, cell membranes, BTI-TN-5B1-4, Membrane vesicle

SMILES | Ki [1] [µM] | Ki [2] [µM]
C[C@H](CCC(=O)NCCS(=O)(=O)O)[C@H]1CC[C@H]2[C@@H]3[C@H](O)C[C@@H]4C[C@H](O)CC[C@]4(C)[C@H]3CC[C@]12C [TAUROCHENODEOXYCHOLATE] | 28 | –
C[C@H](CCC(=O)NCC(=O)O)[C@H]1CC[C@H]2[C@@H]3[C@H](O)C[C@@H]4C[C@H](O)CC[C@]4(C)[C@H]3C[C@H](O)[C@]12C [GLYCOCHOLIC ACID] | 11 | –
CO[C@H]1/C=C/O[C@@]2(C)Oc3c(C)c(O)c4c(O)c(cc(O)c4c3C2=O)NC(=O)/C(C)=C\C=C\[C@H](C)[C@H](O)[C@@H](C)[C@@H](O)[C@@H](C)[C@H](OC(C)=O)[C@@H]1C [RIFAMYCIN] | – | 31
C[C@H](CCC(=O)NCC(=O)O)[C@H]1CC[C@H]2[C@@H]3[C@H](O)C[C@@H]4C[C@H](O)CC[C@]4(C)[C@H]3CC[C@]12C [GLYCOCHENODEOXYCHOLATE] | 7 | –
